Measured values reported in PMC9446799, “Preparation of a camptothecin analog FLQY2 self-micelle solid dispersion with improved solubility and bioavailability” (Journal of Nanobiotechnology, 2022).
Counter-ions that a name gives are not always drawn. Values belong to the molecule of their own block, whether it stands above or below them.

Columns and labels:
[1] = Inhibition of crystallization (solvent-shift method); format: physicochemical; details: for saturated concentration of FLQY2: in Soluplus aqueous solution (2 mg/mL), 37 °C
Protocol: Inhibition of crystallization was studied using the solvent-shift method. 3 mL FLQY2 DMSO solution (1 mg/mL) was mixed respectively with six different 30 mL aqueous solution including six carriers (2 mg/mL) and stirred at 120 r/min under 37 °C. 0.5 mL solution was collected at 0.0833, 0.5, 1, 2, 4, 6, 8 h, filtered through 0.22 μm filters, and determined the dissolved FLQY2 by HPLC.

[2] = MTT cytotoxicity assay; format: cell-based, Human; details: human
Protocol: (§1) The sample preparation: FLQY2 was dissolved in DMSO as a stock solution, and the stock solution was diluted by DMEM medium as a working solution. FLQY2-SD/ FLQY2-PM powder was dissolved in water, then the FLQY2-SD/FLQY2-PM solution was diluted by DMEM medium.
(§2) The cells were cultured in McCoy’s 5A medium for HCT 116 or DMEM medium for MIA PaCa-2 cells. All mediums contained 10% FBS and 1% penicillin–streptomycin solution. The cytotoxicity of FLQY2/FLQY2-SD was measured against these cells using an MTT assay. Briefly, 1 × 10^4 cells per well were seeded into 96 well plates for 24 h. Different concentrations of FLQY2 /FLQY2-SD solution and blank fresh medium were added to the plates and then incubated for 72 h. After adding MTT solution (5 mg/mL) for 4 h, 150 μL of DMSO was added to dissolve the formazan crystals. Absorbance at 570 nm with the control wavelength of 630 nm was used in infinite M200 pro (Tecan, Switzerland). Cell viability was expressed as a percentage relative to the blank control.

[3] = tested on: HCT 116 and MIA PaCa-2 cells; experiment: MTT cytotoxicity assay; format: cell-based, Human
Protocol: as §1, §2

[4] = tested on: HCT 116 and Hep G2 cell lines; set-up: method as in PMID 31309350; details: cited from earlier work
[5] = tested on: P-gp; details: cited from earlier work
[6] = tested on: HT-29 tumor; experiment: Anticancer activity in vivo in HT-29 tumor-bearing mice; set-up: species or system BALB/c mice; details: 100 mpk, i.p./QW, day 28
Protocol: 0.1 mL suspension of HT-29 cells were inoculated in female BALB/c mice at a density of 2 × 10^7/mL. After the tumors grew to 100–200 mm^3 (the day recorded as D0), the mice were randomly grouped and administered with Irinotecan hydrochloride (100 mpk, i.p./QW) (n = 6), Paclitaxel-albumin (15 mpk, i.v./Q4D) (n = 6), FLQY2-SD (1.5 mpk, p.o./QW) (n = 6), FLQY2-SD (1 mpk, p.o./QW) (n = 6), and saline as a blank control (n = 12). The tumor volume and body weight of the mice were recorded every 2 days. On day 28, the mice were sacrificed, and the tumors were surgically removed and weighed. Some parameters were calculated as follows.
tumor volume (TV): TV=1/2×ab^2
relative tumor volume (RTV): RTV=Vt/V0
tumor growth inhibition (TGI): TGI=(1-VT28-VT0/VC28-VC0)×100%
Where a and b are the length and width of the tumors; V0 and Vt are the tumor volume measured at D0 and at each measurement time Dt; VT28 and VT0 are the mean tumor volume in the treatment group at D28 and D0; VC28 and VC0 are the mean tumor volume in the negative control group at D28 and D0.

[7] = Identification of metabolites in plasma, urine and feces (UPLC-TripleTOF); details: ESI−, [M-H]-; F, U, P not defined in the table (feces, urine, plasma samples analysed)
Protocol: The plasma, urine, and feces samples were processed as described above without IS, and the remaining volumes were made up of the precipitant. Chromatographic analysis was performed on an UltiMate 30 (Thermo Fisher Scientific, San Jose, CA, USA). Separation was carried out on an ACQUITY UPLC HSS T3 (1.8 μm, 2.1 × 100 mm) at 40 °C, 2 µL injection volume. In the positive ion mode, the mobile phase consisted of water containing 0.1% formic acid (A) and acetonitrile containing 0.1% formic acid (B). The gradient elution was performed with 5% B for 1.5 min, increasing to 10% B at 2.5 min, then ramping to 40% B at 14 min, rising to 95% B at 22 min, and remaining at 95% B until 25 min, and finally, the column was reconditioned with 5% B for 5 min. The mobile phase consisted of water containing 2 mM ammonium acetate (A) and acetonitrile (B) in the negative ion mode. The gradient elution was the same as in the positive ion mode.
Mass spectrometric analysis was acquired by Peakview 2.2 and MetabolitePilot 2.0.4 software using a quadrupole time-of-flight mass spectrometry (TripleTOF™ 5600, AB Sciex Corporation., Foster City, CA) with MS scans and information dependent acquisition (IDA) MS/MS scans. The mass spectrometer was operated in both positive and negative ion mode with electrospray ionization (ESI) source at 650 ℃. […]

Molecule: CC[C@@]1(O)C(=O)OCc2c1cc1n(c2=O)Cc2c-1nc1cc3c(cc1c2-c1ccc(C(F)(F)F)cc1)OCO3 [FLQY2, 7-p-trifluoromethylphenyl-FL118]
saturated concentration of FLQY2 ([1]; at 5 min): 51.60 µg/mL | saturated concentration of FLQY2 ([1]; at 8 h): 48.76 µg/mL | crystallization inhibition outcome ([1]; mixture including PEG4000, PEG6000, PVP Va64, HS 15 and P407 (2 mg/mL)): crystallization and precipitation | viability at 2 h, 1 µM [2]: > 92.5% | cytotoxicity [3]: dose-dependent toxicity | IC50 [4]: nM level | efflux ratio [5]: < 2

Molecule: CCc1c2c(nc3ccc(OC(=O)N4CCC(N5CCCCC5)CC4)cc13)-c1cc3c(c(=O)n1C2)COC(=O)[C@]3(O)CC [Irinotecan hydrochloride]
TGI [6]: 66.5%

Source (biological sample in which detected) [7]: F, U, P
Molecule: C=c1c(=O)n2c(c/c1=C(/O)CC)-c1nc3cc4c(cc3c(-c3ccc(C(F)(F)F)cc3)c1C2)OCO4 [M1]

Molecule: CC[C@@]1(O)OCc2c1cc1n(c2=O)Cc2c-1nc1cc3c(cc1c2-c1ccc(C(F)(F)F)cc1)OCO3 [M3]
Source (biological sample in which detected) [7]: F, U, P

Molecule: Polyvinyl caprolactam-polyvinyl acetate-polyethylene glycol graft copolymer [Soluplus®]
cell viability [3]: exceeded 91.0 ± 3.8%
